One data set concerns the target T1, human H3 receptor (Homo sapiens, UniProt Q9Y5N1).
T1 construct: expressed in transfected cells
Briefly: Human H3 radioligand binding ([3H]-N-alpha-methylhistamine, CHO cell membranes, SPA). The note with it: Table B, binding constant as letter class. The method in brief: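 CHO cell membranes expressing human H3 (10 μg protein/well) incubated 4 h at room temperature, in the dark, with ~1 nM [3H]-N-alpha-methylhistamine, compounds (0.01 nM-30 μM) and SPA beads in 50 mM Tris HCl pH 7.4, 5 mM MgCl2, 0.1% BSA. Non-specific binding defined with 10 μM clobenpropit.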

For data set [1], the target named is T2, rat histamine H3 receptor (Rattus norvegicus, UniProt Q9QYN8).
T2 construct: encoding the entire 445-amino-acid rat histamine H3 receptor; expressed in transfected cells
Briefly: Rat H3 radioligand binding ([3H]-N-alpha-methylhistamine, CHO-A3 cell membranes, SPA). The conditions noted are these: Table B, binding constant as letter class; read-out: rat H3 Ki. In outline:
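Membranes from CHO-A3 cells stably expressing rat H3 (10 μg protein) incubated 4 h at room temperature in 50 mM Tris-HCl pH 7.4, 5 mM MgCl2, 0.1% BSA with ~1 nM [3H]-N-alpha-methylhistamine and compound (0.01 nM-30 μM). Bound radioligand read by scintillation proximity; nonspecific binding with 10 μM clobenpropit.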

T1 sequence (Q9Y5N1 whole entry): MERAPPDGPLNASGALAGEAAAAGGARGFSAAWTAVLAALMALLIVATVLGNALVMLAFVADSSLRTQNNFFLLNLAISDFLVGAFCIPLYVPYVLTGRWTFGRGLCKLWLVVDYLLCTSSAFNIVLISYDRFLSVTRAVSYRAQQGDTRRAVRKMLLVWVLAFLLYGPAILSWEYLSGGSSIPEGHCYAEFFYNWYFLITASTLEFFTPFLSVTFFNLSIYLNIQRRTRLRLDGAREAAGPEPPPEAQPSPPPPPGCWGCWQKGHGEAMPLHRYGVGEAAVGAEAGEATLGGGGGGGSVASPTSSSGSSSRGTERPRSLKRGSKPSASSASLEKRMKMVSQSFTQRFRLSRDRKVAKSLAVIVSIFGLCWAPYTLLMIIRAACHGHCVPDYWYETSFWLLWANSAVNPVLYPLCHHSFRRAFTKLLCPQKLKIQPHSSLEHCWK
T2 sequence (Q9QYN8 whole entry): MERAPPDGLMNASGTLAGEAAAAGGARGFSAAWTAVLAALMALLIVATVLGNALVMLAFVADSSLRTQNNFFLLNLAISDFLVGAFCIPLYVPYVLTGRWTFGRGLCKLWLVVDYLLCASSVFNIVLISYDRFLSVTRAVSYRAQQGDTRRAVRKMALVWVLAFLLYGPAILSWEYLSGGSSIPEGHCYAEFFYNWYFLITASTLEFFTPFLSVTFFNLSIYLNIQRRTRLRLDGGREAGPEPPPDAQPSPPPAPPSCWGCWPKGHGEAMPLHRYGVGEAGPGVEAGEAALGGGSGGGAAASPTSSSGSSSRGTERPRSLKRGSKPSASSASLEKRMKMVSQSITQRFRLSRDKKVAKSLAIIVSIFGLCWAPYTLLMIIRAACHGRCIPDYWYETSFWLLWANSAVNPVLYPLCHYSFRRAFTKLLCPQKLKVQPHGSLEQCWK

Take `CC1(C)CC(c2ccc(OC3CCN(C4CCC4)CC3)cc2)=NNC1=O` [Example 152, 6-[4-(1-Cyclobutyl-piperidin-4-yloxy)-phenyl]-4,4-dimethyl-4,5-dihydro-2H-pyridazin-3-one]: the melting point was in the range of 157 to 158 °C. This compound showed a Ki on human H3 receptor of 0.1 to 100 nM. Also, the Ki in data set [1] is 0.1 to 100 nM.

`O=C1CCC(c2ccc(OC3CCNCC3)cc2)=NN1C1CCC1` [Example 165, 2-Cyclobutyl-6-[4-(piperidin-4-yloxy)-phenyl]-4,5-dihydro-2H-pyridazin-3-one] came in with a melting point of 168 to 170 °C. The same compound came in with a Ki on human H3 receptor of more than 1000 nM. In addition, the Ki in data set [1] was more than 1000 nM.

In turn, `O=C1NN=C(c2ccc(OC3CCN(C4CCC4)CC3)cc2)C2CC12` (stereo not drawn) [Example 244, 5-[4-(1-Cyclobutyl-piperidin-4-yloxy)-phenyl]-3,4-diaza-bicyclo[4.1.0]hept-4-en-2-one] came in with a melting point of 79 to 81 °C. In addition, on human H3 receptor, the Ki lay within 0.1 to 100 nM. For the same compound, the Ki in data set [1] was 0.1 to 100 nM.

As for `O=C1CCC(c2cc(F)c(OC3CCN(C4CCC4)CC3)c(F)c2)=NN1` [Example 187, 6-[4-(1-Cyclobutyl-piperidin-4-yloxy)-3,5-difluoro-phenyl]-4,5-dihydro-2H-pyridazin-3-one], the melting point lay in the range of 162 to 164 °C. The compound also showed an inhibitory constant (Ki) on human H3 receptor of 0.1 to 100 nM. In data set [1], the inhibition constant Ki lay within 0.1 to 100 nM.

`CC(C)N1CCC(Oc2ccc(-c3ccc(=O)[nH]n3)cn2)CC1` [Example 142, 6-[6-(1-Isopropyl-piperidin-4-yloxy)-pyridin-3-yl]-2H-pyridazin-3-one]: the melting point is 195 to 197 °C. This compound registered an inhibition constant (Ki) on human H3 receptor of 0.1 to 100 nM. The inhibition constant (Ki) in data set [1] lay within 101 to 500 nM.

As for `CN(CCCOc1ccc(-c2ccc(=O)[nH]n2)cc1)C1CCCC1` [Example 242, 6-{4-[3-(Cyclopentyl-methyl-amino)-propoxy]-phenyl}-2H-pyridazin-3-one], the melting point was in the range of 95 to 98 °C. The inhibition constant Ki at human H3 receptor fell in the range of 0.1 to 100 nM. Moreover, in data set [1], the Ki lay within 101 to 500 nM.
